Assay results: ChEMBL document CHEMBL5724558, “Image-based profiling of drug vulnerabilities in CRC organoids” (2024)
Values joined by “and” are separate entries in the source; they are usually repeats but may differ in a detail not shown here. Identical values can stand only once.

Experiments:
Type in all cases: functional, Homo sapiens
Design in all cases: dose or concentration left out as unconfirmed
[1] = system: Colon cancer organoid; experiment: Image-based profiling of donated chemical probes and chemogenomic kinase set in O06 CRC organoid. Image analysis is performed on the sum area metric, and the data were normalized to the DMSO control. After imaging the organoid viability is measured using the OneGloEX Luciferase Assay System. The normalized viability data and sum area are reported.
[2] = system: Colon cancer organoid; experiment: Image-based profiling of donated chemical probes and chemogenomic kinase set in O09 CRC organoid. Image analysis is performed on the sum area metric, and the data were normalized to the DMSO control. After imaging the organoid viability is measured using the OneGloEX Luciferase Assay System. The normalized viability data and sum area are reported.
[3] = system: Colon cancer organoid; experiment: Image-based profiling of donated chemical probes and chemogenomic kinase set in O21 CRC organoid. Image analysis is performed on the sum area metric, and the data were normalized to the DMSO control. After imaging the organoid viability is measured using the OneGloEX Luciferase Assay System. The normalized viability data and sum area are reported.

| SMILES | Cell Viability ([1]; Replication number 1) | Cell Viability ([1]; Replication number 2) | Cell Viability ([2]; Replication number 1) | Cell Viability ([2]; Replication number 2) | Cell Viability ([3]; Replication number 1) | Cell Viability ([3]; Replication number 2) |
| --- | --- | --- | --- | --- | --- | --- |
| CO[C@H]1CC[C@H](CNc2ccc(S(=O)(=O)NC(=O)c3ccc(N4CCN(CC5=C(c6ccc(Cl)cc6)CC(C)(C)CC5)CC4)cc3Oc3cnc4[nH]ccc4c3)cc2[N+](=O)[O-])CC1 [A-1211212] | 28.9146% and 70.6883% | 21.4505% and 46.3719% | 50.8739% and 100.725% | 51.2572% and 87.2324% | 101.35% and 117.861% | 64.2952% and 94.8335% |
| CN(C)C(=O)/C(C#N)=C/c1ccc(-c2nc3cnc4c(ccn4C)c3n2C2CCCCC2)o1 | 94.8079% and 114.901% | 118.022% and 96.0735% | 117.89% and 123.735% | 132.247% and 113.588% | 100.887% and 101.443% | 86.9771% and 102.576% |
| COc1ccc(COc2ccc(Cc3cnc(N)nc3N)cc2OC)cc1 [GW632580X] | 58.2611% and 105.272% | 114.527% and 102.005% | 97.2833% and 91.2576% | 140.582% and 107.98% | 84.7531% and 94.7735% | 111.284% and 94.9982% |
| CNC(=O)c1ccccc1Nc1cc(Nc2ccc(N3CCOCC3)cc2OC)ncc1C(F)(F)F [VS-4718] | 26.6369% and 55.3846% | 24.9671% and 46.6122% | 16.1966% and 32.4497% | 15.3454% and 34.2982% | 46.4172% and 62.2044% | 35.2448% and 60.1632% |
| CNC(=O)c1cc(C(=O)N[C@H]2[C@@H]3COC[C@@H]32)cc2c1O[C@H](CF)[C@H]2c1ccccc1 [GSK973] | 85.8672% and 112.47% | 108.347% and 115.089% | 33.6063% and 74.8406% | 64.0142% and 82.8707% | 110.582% and 117.861% | 99.9706% and 95.8532% |
| CN(C)C(=O)Cn1cc(-c2ccc(-c3cncc4ccccc34)cc2)cn1 | 73.9778% and 127.973% | 75.2678% and 99.5373% | 314.332% and 120.679% | 170.131% and 105.821% | 132.258% and 129.895% | 113.21% and 111.119% |
| O=C(NOCC1CC1)c1ccc(F)c(F)c1Nc1ccc(I)cc1Cl [CI-1040] | 3.322% and 9.147% | 3.495% and 11.5373% | 15.162% and 31.6659% | 27.5568% and 31.5843% | 35.0082% and 32.446% | 40.3855% and 37.5387% |
| CCOC(=O)CCNc1cc(N2CCc3ccccc3CC2)nc(-c2ccccn2)n1 | 148.439% and 134.336% | 153.418% and 113.038% | 78.8625% and 87.8671% | 139.531% and 105.195% | 97.5264% and 129.915% | 84.038% and 100.955% |
| COc1cccc(CNC(=O)c2nc3scc(CN(C)Cc4ccccc4)c3c(=O)[nH]2)c1 [T-26f] | 86.0581% and 83.8408% | 86.5317% and 78.1759% | 195.868% and 94.1333% | 147.324% and 100.767% | 98.5646% and 83.8292% | 88.8685% and 86.2245% |
| O=C(CCCCCCNC(=O)c1cnc(N(c2ccccc2)c2ccccc2)nc1)NO [RICOLINOSTAT] | 107.943% and 108.966% | 120.178% and 118.056% |  | 236.119% and 135.984% | 136.698% and 150.49% | 122.116% and 112.232% |
| CCc1cc(Nc2nccc(-c3c(-c4ccc(OC)c(C(=O)Nc5c(F)cccc5F)c4)nc4ccccn34)n2)c(OC)cc1N1CCC(N2CCN(S(C)(=O)=O)CC2)CC1 | 105.005% and 109.946% | 148.394% and 109.614% | 134.446% and 100.483% | 134.446% and 126.607% | 80.3348% and 98.676% | 124.058% and 123.21% |
| COc1cc(C(=O)N2CC[C@@H](O)[C@@H](N)C2)cc2nc(-c3cc4ccccc4n3CC3CC3)n(C)c12.Cl | 141.855% and 120.564% | 139.679% and 135.263% | 108.535% and 117.543% | 77.7437% and 99.4932% | 95.6097% and 101.11% | 84.8651% and 86.9928% |
| CC1CCN(c2ccnc(NCc3cn(C)cn3)n2)CC1 [TP-040] | 114.457% and 102.441% | 78.7525% and 90.5361% | 164.974% and 118.043% | 162.348% and 114.826% | 98.573% and 105.41% | 113.293% and 110.51% |
| CN([C@@H]1CCc2c(CC(=O)O)c3cc(S(C)(=O)=O)ccc3n2C1)S(=O)(=O)c1ccc(F)cc1 [CRTH2-negative-control] | 102.982% and 101.171% | 44.9133% and 103.761% | 103.344% and 126.626% | 95.2483% and 103.103% | 114.066% and 111.772% | 101.538% and 90.3061% |
| CCNC(=O)c1cc2c(N3CCOC[C@@H]3C)ccnc2n1C | 97.9107% and 98.1265% | 90.7853% and 98.7859% | 131.24% and 98.4338% | 151.747% and 108.945% | 124.621% and 105.951% | 105.072% and 92.3469% |
| C[C@H](NC(=O)Nc1cc2[nH]ncc2c(CO)n1)c1ccccn1 [ERKi-NC] | 123.043% and 110.304% | 54.2126% and 97.1276% | 84.2492% and 86.249% | 90.2054% and 105.732% | 112.403% and 96.6365% | 96.9008% and 86.2245% |
| C[C@@H](NC(=O)Nc1cc2[nH]ncc2c(CO)n1)c1ccccc1 [ERKi] | 27.1255% and 47.7752% | 41.1023% and 64.199% | 38.3769% and 59.9681% | 20.7917% and 30.6681% | 47.444% and 52.6843% | 54.1158% and 53.5714% |
| CNc1cc(Oc2cc(C(=O)Nc3cc(N4CCN(C)CC4)cc(C(F)(F)F)c3)ccc2C)ncn1 | 159.785% and 126.415% | 134.323% and 110.437% | 67.5725% and 54.8543% | 89.2328% and 78.5558% | 91.6844% and 105.366% | 86.288% and 119.755% |
| CC(C)C(=O)Nc1n[nH]c2cc(-c3cccc(NS(=O)(=O)C4CC4)c3)ccc12 | 98.7656% and 120.438% | 86.9624% and 76.1389% | 171.396% and 120.765% | 122.795% and 96.2655% | 108.143% and 100.309% | 99.3973% and 100.309% |
| CCNC(=O)c1cc2c(N3CCOCC3C)ccnc2[nH]1 (stereo not given) | 98.3654% and 112.881% | 119.727% and 97.8383% | 68.1497% and 105.84% | 64.0482% and 77.4005% | 130.503% and 111.772% | 91.1701% and 91.3265% |
| Cc1cccc(-c2cnc3occ(-c4ccc(C(=O)O)c(C5CCCC5)c4)c3c2)c1 | 91.6718% and 109.086% | 100.62% and 106.871% | 143.367% and 90.8211% | 122.111% and 97.0079% | 122.241% and 115.611% | 124.793% and 91.2416% |
